Test results published in US20070225213A1, “Nucleic acid carriers for delivery of therapeutic agents” (priority 2006, published 2007).

How the values were obtained:
[1] = DNA addition method: NAC complexed vs unbound MTN in mouse urine (Example 17)
Method: To determine if NAC-MTN was excreted in urine as a complex, MTN fluorescence due to unbound NAC was assayed by an addition method. DNA was added to urine from both groups and subsequent change in fluorescence was measured.

[2] = intravenous administration; cited from earlier work
MCF7 cells = assay: Drug loading vs toxicity at fixed [drug], MTT viability assay (Example 4); type: cell-based, human; conditions: Drug only, without carrier; 0.058 mM MTN; 72 hours
Method: FIG. 1. […] NAC-MTN or NAC-DOX were prepared at different weight:weight % of drug:nucleic acid and incubated in cells. For each sample and corresponding % loading, the total drug was held constant at 0.058 mM MTN or 0.1 mM DOX. After incubation in cells, cell viability was assayed via mitochondrial dehydrogenase activity against 3-[4,5-dimethylthiazol-2-yl]-2,5-diphenyl tetrazolium bromide (MTT) and reported as % toxicity relative to untreated cells.
Mitoxantrone (MTN, Sigma Aldrich) and Doxorubicin HCl (DOX) were diluted in HBSS to 1 mg/ml final. DNA, from degraded herring sperm DNA <40 bp (HSDNA, Sigma Aldrich), was prepared in water at 10 mg/ml. The drug was diluted in water or HBSS first, followed by addition of the DNA, in order to prevent precipitation. Precipitation of drug was especially a concern at 40% loading of MTN, which is the loading limit for HSDNA (degraded) and so the DNA is added slowly to the diluted MTN (the reverse addition leads to precipitation). All NAC-MTN formulation stocks were prepared at 0.15 mg/ml final MTN, and different concentration of DNA in order to give 15, 25, and 35.7% final drug loading w/w % of MTN/DNA in 0.5 ml final volume. All NAC-DOX formulations were prepared at 0.3 mg/ml final DOX, and either 5, 10, or 15% loaded drug weight/weight % of DOX/DNA in 0.5 ml final volume. […]

human MCF-7 cells = assay: Visually scored toxicity of NAC-MTN / NAC-DOX at fixed loading (Example 3); type: cell-based; conditions: 5.6 ug/ml final drug; 5.1% drug loading; 16 hour incubation
Method: Toxicity of NAC-MTN or NAC-DOX, at 50, 16.9, 5.6, and 1.9 ug/ml final drug concentration and 5.1 % drug loading in human MCF-7 cells. Sample A: 15 mg of HSDNA (EX031804A) was combined with 0.76 mg MTN(mw 517.4) or (sample B) 0.76 mg DOX (mw 579.99) to give 152 ug/ml final drug and 5.1% loading in 5 ml final vol. Samples C, D were MTN, or DOX only controls at equivalent final [drug] without HSDNA. Sample E was HSDNA, no drug and sample F was H2O only. MCF-7 cells were trypsinized and plated out previously. Triplicate samples were diluted 0.1 ml in 0.2 ml 1× media to give 3× fold serial dilution in 0.2 ml final. After 16 hour incubation the cells were visually inspected for signs of toxicity. Toxicity was scored as the following: 50%=one half all cells rounded, un-adhered or crenated.

MCF7 = assay: Toxicity of NAC-MTN vs CD-MTN and MTN, MTT (Example 9, EX042105); type: cell-based, human
Method: FIG. 4. […] The relative toxicity of NAC-MTN was compared with MTN and CD-MTN in four cell lines, MCF7(breast cancer), COS7green monkey kidney (SV40 transformed), 3T3 (mouse fibroblast), and BHK21(hamster kidney). Cells were treated with identical amounts of MTN formulated as either NAC-MTN, MTN only, or poly-beta-cyclodextrin-sulfylbutylether(CD-MTN). After an incubation period, cell viability was assayed with MTT assay. The differences in toxicity between NAC-MTN and MTN or NAC-MTN and CD-MTN are shown as % difference. Greater percentage difference correlates to more reduction in relative NAC-MTN toxicity.
MCF7, COS7, 3T3, and BHK21 cells were plated out in duplicate rows of equivalent cell density in 100ul final volume. Initial cell densities were 2000 cells/well.
Preparing NAC-MTN, CD-MTN, and MTN only. Combined 180 ul of 0.05 mg/ml MTN with […] 0.1 mg/ml herring sperm genomic DNA (HSGDNA, Promega), 1500 ul of 2× DMEM media containing 20% FBS to give 3.0 ml final volume and 12% final drug loading in the dsDNA. For MTN only, 180 ul of MTN was combined with 1320 ul H2O and 1500 ul 2× DMEM. […]
Aspirated media in plate and replaced with 50 ul of 0.5 mg/ml MTT in 1× media, incubated 3 hours, aspirated, air dried 5 min and dissolved in 100 ul of isopropyl, read OD at A570. […]

SMILES: O=C1c2c(O)ccc(O)c2C(=O)c2c(NCCNCCO)ccc(NCCNCCO)c21 [MTN, mitoxantrone]
- % Change Fluor. on DNA addition to urine ([1]; Elapsed Time 2.5 hr): 83%
- % Change Fluor. on DNA addition to urine ([1]; Elapsed Time 5 hr): 66%
- % Change Fluor. on DNA addition to urine ([1]; Elapsed Time 8 hr): 71%
- elimination half life [2]: 12 days
- % Tox (MCF7 cells): 79%
- Toxicity (visual score) (human MCF-7 cells): 90%
- % tox. relative to media only (MCF7; 2 uM final MTN, MTT 48 hours after adding samples): 48.39%
- toxic effect (MCF7; after 24 hours, 2 uM MTN): no toxic effect
